# According to patent US7893067B2, “Cysteine protease inhibitors” (Medivir AB, priority 2007, dated 2011):
# Read-outs that look alike come from different tables or passages of the source.
# How the values were obtained:
# [1] = Metabolic stability in human hepatic cytosol assay; type: in vitro ADME
# Method: Compounds of the invention and the indicated comparative examples were tested for metabolic stability in a cytosol assay in which the compounds were incubated with commercially available human hepatic cytosol fractions and the disappearance of the compound monitored by HPLC or LC/MS. Pooled human liver cytosol fractions are less likely to represent outlier individuals than blood from a single individual and can be stored frozen, unlike whole blood. The cytosol assay thus provides a consistent assay testbed as a guide to the stability of a compound in the in vivo environment, such as when exposed to whole blood.
# In short, test compounds (2 μM) are incubated in pooled human liver cytosol (Xenotech LLC Lenexa US, 1 mg/mL protein in 0.1M phosphate buffer, pH 7.4) at 37° centigrade over a one hour period. The incubations are initiated by the addition of 1 mM NADPH co-factor. Timed sub-samples were taken at 0, 20, 40 and 60 minutes and “crash precipitated” by the addition of 3 volumes of ice-cold acetonitrile. The samples were centrifuged at reduced temperature and the supernatants were separated and analyzed by LC-MS-MS.
# human cathepsin L = human cathepsin L (Homo sapiens, UniProt P07711); assay: Cathepsin L Ki; type: biochemical
# Method: The procedure above with the following amendments is used for the determination of Ki for cathepsin L.
# The enzyme is commercially available human cathepsin L (for example Calbiochem). The substrate is H-D-Val-Leu-Lys-AMC available from Bahcem. The assay buffer is 100 mM sodium acetate 1 mM EDTA, pH5.5) The DMSO stock (10 mM in 100% DMSO) is diluted to 10% in assay buffer. Enzyme is prepared at 5 nM concentration in assay buffer plus 1 mM dithiothreitol just before use. 2 ul of 10 mM inhibitor made up in 100% DMSO is dispensed into row A. 10 ul of 50 uM substrate (=1/200 dilution of 10 mM stock in DMSO, diluted in assay buffer)
# (§1) Potential inhibitors are screened using the above assay with variable concentrations of test compound. Reactions were initiated by addition of enzyme to buffered solutions of substrate and inhibitor. Ki values were calculated according to equation 1
# (§2) [formula] where v0 is the velocity of the reaction, V is the maximal velocity, S is the concentration of substrate with Michaelis constant of KM, and/is the concentration of inhibitor.
# [2] = target: T1, baculovirus-expressed human cathepsin S (Homo sapiens, UniProt P25774); assay: Cathepsin S Ki determination; type: biochemical
# T1 construct: made in house
# Method: 280 μl/well of 12.5% DMSO are added to rows B-H of two columns of a 96 deep well polypropylene plate. 70 μl/well of substrate is added to row A. 2×250 μl/well of assay buffer (100 mM Na phosphate, 100 mM NaCl, pH 6.5) is added to row A, mixed, and double diluted down the plate to row H. 100 μl/well of assay buffer is added to columns 2-5 and 7-12 of 4 rows of a 96 well V bottom polypropylene plate. 200 μl/well of assay buffer is added to columns 1 and 6. […] Add 90 μl assay buffer containing 1 mM DTT and 2 nM cathepsin S to each well of rows B-H and 180 μl to row A. Mix row A using a multichannel pipette and double dilute to row G. Mix row H and read in the fluorescent spectrophotometer. […] The second test compound is added to column 6 of the top row, the third to column 1 of the second row etc. Add 1 μl of comparator to column 6 of the bottom row. Mix column 1 and double dilute to column 5. Mix column 6 and double dilute to column 10. Using an 8-channel multistepping pipette set to 5×10 μl, distribute 10 μl/well of substrate to the 384 well assay plate. Distribute the first column of the substrate dilution plate to all columns of the assay plate starting at row A. The tip spacing of the multichannel pipette will correctly skip alternate rows. Distribute the second column to all columns starting at row B. Using a 12-channel multistepping pipette set to 4×10 μl, distribute 10 μl/well of inhibitor to the 384 well assay plate. Distribute the first row of the inhibitor dilution plate to alternate rows of the assay plate starting at A1. The tip spacing of the multichannel pipette will correctly skip alternate columns. Similarly, distribute the second, third and fourth rows to alternate rows and columns starting at A2, B1 and B2 respectively. Mix 20 ml assay buffer and 20 μl 1M DTT. Add sufficient cathepsin S to give 2 nM final concentration. Using the a distributor such as a Multidrop 384, add 30 μl/well to all wells of the assay plate and read in fluorescent spectrophotomoter such as an Ascent. Fluorescent readings, (excitation and emission wavelengths 390 nm and 460 nm respectively, set using bandpass filters) reflecting the extent of enzyme cleavage of the fluorescent substrate, notwithstanding the inhibitor, are linear rate fitted for each well. Fitted rates for all wells for each inhibitor are fitted to the competitive inhibition equation using SigmaPlot 2000 to determine V, Km and Ki values. Potential inhibitors are screened using the above assay with variable concentrations of test compound. Reactions were initiated by addition of enzyme to buffered solutions of substrate and inhibitor. Ki values were calculated according to equation 1 [formula] where v0 is the velocity of the reaction, V is the maximal velocity, S is the concentration of substrate with Michaelis constant of KM, and/is the concentration of inhibitor.
# [3] = Caco-2 permeability (Papp); type: in vitro ADME; settings: human; Caco-2 assay, standard concentration 10 μM
# Method: The transport plate comprises 3 rows of 4 wells.
# Determination of the cumulative fraction absorbed, FAcum, versus time. FAcum is calculated from: […]
# A linear relationship should be obtained.
# [4] = target: T2, human recombinant cathepsin K (Homo sapiens, UniProt P43235); assay: Determination of cathepsin K proteolytic catalytic activity (Ki); type: biochemical
# T2 construct: made in house; host or cells: not fixed: E coli, Pichia or Baculovirus systems named as options
# T2 sequence (P43235 115-329): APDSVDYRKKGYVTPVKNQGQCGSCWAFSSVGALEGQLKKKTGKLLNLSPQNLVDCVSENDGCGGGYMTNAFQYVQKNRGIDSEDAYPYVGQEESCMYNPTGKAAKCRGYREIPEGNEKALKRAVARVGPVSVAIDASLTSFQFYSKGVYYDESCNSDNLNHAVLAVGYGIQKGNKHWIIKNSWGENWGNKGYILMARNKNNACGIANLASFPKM
# Method: Convenient assays for cathepsin K are carried out using human recombinant enzyme, such as that described in PDB.
# The recombinant cathepsin K can be expressed in a variety of commercially available expression systems including E coli, Pichia and Baculovirus systems. The purified enzyme is activated by removal of the prosequence by conventional methods.
# Standard assay conditions for the determination of kinetic constants used a fluorogenic peptide substrate, typically H-D-Ala-Leu-Lys-AMC, and were determined in either 100 mM Mes/Tris, pH 7.0 containing 1 mM EDTA and 10 mM 2-mercaptoethanol or 100 mM Na phosphate, imM EDTA, 0.1% PEG4000 pH 6.5 or 100 mM Na acetate, pH 5.5 containing 5 mM EDTA and 20 mM cysteine, in each case optionally with […] as stabiliser. The enzyme concentration used was 5 nM. The stock substrate solution was prepared at 10 mM in DMSO. Screens were carried out at a fixed substrate concentration of 60 μM and detailed kinetic studies with doubling dilutions of substrate from 250 μM. The total DMSO concentration in the assay was kept below 3%. All assays were conducted at ambient temperature. Product fluorescence (excitation at 390 nm, emission at 460 nm) was monitored with a Labsystems Fluoroskan Ascent fluorescent plate reader. Product progress curves were generated over 15 minutes following generation of AMC product.
# as §1, §2
# [5] = typical reference compounds (markers) for the Caco-2 assay; cited from earlier work
# [6] = 2 μM in pooled human liver cytosol, 1 mg/mL protein, pH 7.4, 37°, 1 mM NADPH
# [7] = representative values from specific batches of compound/enzyme/assay occasion
# T1 sequence (P25774 115-331): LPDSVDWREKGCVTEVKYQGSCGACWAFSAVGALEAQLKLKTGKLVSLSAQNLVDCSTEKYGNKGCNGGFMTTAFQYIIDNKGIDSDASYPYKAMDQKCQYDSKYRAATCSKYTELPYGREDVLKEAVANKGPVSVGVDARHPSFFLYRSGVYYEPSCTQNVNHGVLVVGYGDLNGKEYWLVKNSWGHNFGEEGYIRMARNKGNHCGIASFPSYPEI
# Sequence of human cathepsin L (P07711 114-333): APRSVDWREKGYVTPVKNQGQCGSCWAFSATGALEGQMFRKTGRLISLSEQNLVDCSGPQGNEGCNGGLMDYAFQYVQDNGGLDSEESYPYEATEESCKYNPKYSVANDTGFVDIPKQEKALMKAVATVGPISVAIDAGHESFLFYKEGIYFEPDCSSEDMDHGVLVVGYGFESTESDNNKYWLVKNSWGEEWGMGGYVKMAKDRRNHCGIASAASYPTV
Structure (SMILES),"half-life at 2 μM [1, 6] [h]","Ki (human cathepsin L; Table 1, class symbols) [µM]",Ki (human cathepsin L; [7]) [µM],"Ki ([2]; Table 1, class symbols) [µM]","Ki [2, 7] [µM]","Ki ([4]; Table 1, class symbols) [µM]","Ki [4, 7] [µM]",further results
"CC(C)C[C@H](NC(=O)c1ccc(-c2csc(N3CCN(C)CC3)n2)cc1)C(=O)N1C[C@H](Cl)[C@H]2OCC(=O)[C@H]21 [Comparative Example 1, reference compound]",0.4,–,–,–,–,–,–,–
"Cc1sc(N2CCN(C)CC2)nc1-c1ccc(C(=O)N[C@@H](CC(C)C)C(=O)N2C[C@H](F)[C@H]3OCC(=O)[C@H]32)cc1 [Comparative Example 3, reference compound]",1.67 to 2.5,–,–,–,–,–,–,–
"Cc1sc(N2CCN(C)CC2)nc1-c1ccc(C(=O)N[C@@H](CC(C)C)C(=O)N2CC[C@H]3OCC(=O)[C@H]32)cc1 [Comparative Example 2, reference compound]",1.2,–,–,–,–,–,–,cytosol half life ([1]; human liver cytosol): a little over an hour
"CC(C)C[C@H](NC(=O)c1ccc(-c2csc(N3CCN(C)CC3)n2)c(F)c1)C(=O)N1C[C@@H](Cl)[C@H]2OCC(=O)[C@H]21 [Example 10, N—[(S)-1-((3aS,6R,6aS)-6-Chloro-3-oxo-hexahydro-furo[3,2-b]pyrrole-4-carbonyl)-3-methyl-butyl]-3-fluoro-4-[2-(4-methyl-piperazin-1-yl)-thiazol-4-yl]-benzamide]",–,0.05 to 0.5,0.49,1 to 5,4.7,< 0.05,0.0034,"Papp at 120 min, 10 μM [3]: 5.2 ×10⁻⁶ cm/s"
"CN1CCN(c2nc(-c3ccc(C(=O)N[C@H](C(=O)N4C[C@@H](Cl)[C@H]5OCC(=O)[C@H]54)C4CCCCC4)cc3)cs2)CC1 [Example 7, N-[2-((3aS,6R,6aS)-6-Chloro-3-oxo-hexahydro-furo[3,2-b]pyrrole-4-yl)-1-S-cyclohexyl-2-oxo-ethyl]-4-[2-(4-methyl-piperazin-1-yl)-thiazol-4-yl]-benzamide]",–,1 to 5,1.2,1 to 5,1.7,< 0.05,0.0042,–
"CC(C)C[C@H](NC(c1ccc(-c2ccc(S(C)(=O)=O)cc2)cc1)C(F)(F)F)C(=O)N1C[C@@H](Cl)[C@H]2OCC(=O)[C@H]21 (stereo in doubt) [Example 13, 6-Chloro-4-{4-methyl-2-[2,2,2-trifluoro-1-(4′-methanesulfonyl-biphenyl-4-yl)-ethylamino]-pentanoyl}-tetrahydro-furo[3,2-b]pyrrol-3-one]",–,1 to 5,–,> 10,–,< 0.05,–,–
"CC(C)C[C@H](NC(=O)c1ccc(-c2csc(N3CCN(C)CC3)n2)cc1)C(=O)N1C[C@@H](Cl)[C@H]2OCC(=O)[C@H]21 [Example 6, N—[(S)-1-((3aS,6R,6aS)-6-chloro-3-oxo-hexahydro-furo[3,2-b]pyrrole-4-carbonyl)-3-methyl-butyl]-4-[2-(4-methyl-piperazin-1-yl)-thiazol-4-yl]benzamide]",–,0.501 to 1,0.89,1 to 5,4,< 0.05,0.0015,"t1/2 minutes [1, 6]: >5 h; half-life at 2 μM ([1]; pooled human liver cytosol, pH 7.4, human liver cytosol, read-out: cytosol half life): > 5 h"
OC[C@@H](O)[C@@H](O)[C@H](O)[C@H](O)CO [Mannitol],–,–,–,–,–,–,–,% absorption in man [5]: 16%
"Cc1sc(N2CCN(C)CC2)nc1-c1ccc(C(=O)N[C@@H](CC(C)C)C(=O)N2C[C@@H](Cl)[C@H]3OCC(=O)[C@H]32)cc1 [Example 5, N-[1-(6-chloro-3-oxo-hexahydro-furo[3,2-b]pyrrol-4-carbonyl)-3-methyl-butyl]-4-[5-methyl-2-(4-methyl-piperazin-1-yl)-thiazol-4-yl]-benzamide]",3.3,0.501 to 1,0.88,5 to 10,7.5,< 0.05,0.0016,–
"CN1CCN(c2nc(-c3ccc(C(=O)N[C@@H](CC(C)(C)F)C(=O)N4C[C@@H](Cl)[C@H]5OCC(=O)[C@H]54)cc3)cs2)CC1 [Example 8, N—[(S)-1-((3aS,6R,6aS)-6-chloro-3-oxo-hexahydro-furo[3,2-b]pyrrole-4-carbonyl)-3-fluoro-3-methyl-butyl]-4-[2-(4-methyl-piperazin-1-yl)-thiazol-4-yl]benzamide]",–,1 to 5,2.9,> 10,13,< 0.05,0.0033,–
CC(C)C[C@H](NC(=O)c1ccc(-c2csc(N3CCN(C)CC3)n2)c(F)c1)C(=O)N1C[C@@H](Cl)[C@H]2OCC(=O)[C@H]21 [Example 11],3,–,–,–,–,–,–,–
N[C@@H](Cc1ccccc1)C(=O)O [L-Phenylalanine],–,–,–,–,–,–,–,% absorption in man [5]: 100%
CN(Cc1cnc2nc(N)nc(N)c2n1)c1ccc(C(=O)N[C@@H](CCC(=O)O)C(=O)O)cc1 [Methotrexate],–,–,–,–,–,–,–,% absorption in man [5]: 20%
